Source: US7202280B2, “Methods for the treatment and prevention of pancreatitis and for induction of liver regeneration” (priority 2002, dated 2007)
Marks after values point to notes of the source that are not given here.

Experiments:
[1] = tested on: syngenic and transgenic rats; assay: Hepatic SSAT activity and polyamine pools after partial hepatectomy; assay type: in vivo, rat
From the text: FIGS. 4a–4d. Hepatic polyamine pools in syngenic and transgenic rats after partial hepatectomy and methylspermidine. […] Three to five animals in each group. Me-spd, methylspermidine.
The production of transgenic Wistar rats (UKUR30) and mice (UKU181) harboring metallothionein-SSAT fusion gene (Suppola, S., Pietilä, M., Parkkinen, J. J., Korhonen, V. P., Alhonen, L., Halmekytö, M., Porter, C. W., and Jänne, J. (1999) Biochem. J. 338, 311–316) has been described earlier (Alhonen, L., Parkkinen, J. J., Keinänen, T., Sinervirta, R., Herzig, K. H., and Jänne, J. (2000) Proc. Natl. Acad. Sci. U.S.A. 97, 8290–8295; Lukkarinen, J., Gröhn, O., Sinervirta, R., Järvinen, A., Kauppinen, R. A., Jänne, J., and Alhonen, L. (1997) Stroke 28, 639–645). Partial hepatectomy was carried out according to the original method of Higgins and Anderson (Higgins, G. H., and Anderson, R. M. (1931) Arch. Pathol. 12, 186–202). Treatments before partial hepatectomy and the determination of DNA synthesis were carried out as in (Räsänen, T. L., Alhonen, L., Sinervirta, R., Keinänen, T., Herzig, K. H., Suppola, S., Khomutov, A. R., Vepsäläinen, J., and Jänne, J. (2002) J. Biol. Chem. 277, 39867–39872). […] The animals were sacrificed 24 h after the second MDL72527 injection and liver pieces were frozen in liquid nitrogen, homogenized in buffer (25 mM Tris-HCl pH 7.4, 0.1 mM EDTA, 1 mM DTT). An aliquot of the homogenates was used for the polyamine assays. The homogenates were centrifuged (at 13 000×g, for 30 min, at 4° C.) and the supernatants were used for the enzyme activity assays. The Institutional Animal Care and Use Committee of the University of Kuopio and by the Provincial Government approved animal experiments.
FIG. 4 depicts polyamine concentrations in syngenic and transgenic rats at 24 h after partial hepatectomy. […] This in all likelihood reflected the enhanced SSAT activity. […] In transgenic animals, the low spermidine pool was further decreased in response to the operation (FIG. 4c).
Liver regeneration could be restored by a prior administration of α-methylspermidine (Räsänen, T. L., Alhonen, L., Sinervirta, R., Keinänen, T., Herzig, K. H., Suppola, S., Khomutov, A. R., Vepsäläinen, J., and Jänne, J. (2002) J. Biol. Chem. 277, 39867–39872). FIG. 10. depicts thymidine incorporation in livers of transgenic rats before and 24 h after partial hepatectomy. […] Table 3 lists the liver pools of polyamines and their analogues before and after partial hepatectomy. […] The analogues were readily accumulated in the livers.

[2] = tested on: SSAT transgenic rats; assay: Stability of the analogues in the liver of SSAT transgenic rats without or with MDL72527 (hepatic polyamine pools); assay type: in vivo, rat; conditions: for metabolic stability / conversion in the liver in vivo: without MDL72527; for conversion to α-methylspermidine in the liver: with MDL72527 50 mg/kg i.p. twice
Experimental: FIGS. 8A-8D. Hepatic polyamine pools in SSAT transgenic rats treated with methylated polyamine analogues without or with MDL72527. The rats were injected twice with MDL72527 (50 mg/kg i.p.) at 16-h interval. The polyamine analogues (25 mg/kg i.p.) were injected 2 and 8 h later. The animals were sacrificed 24 h after the last MDL72527 injection. There were three to four animals in each group. Put, putrescine; […] Spd, spermidine; Me-Spd, α-methylspermidine; […] The production of transgenic Wistar rats (UKUR30) and mice (UKU181) harboring metallothionein-SSAT fusion gene (Suppola, […]., Porter, C. W., and Jänne, J. (1999) Biochem. […] (2000) Proc. Natl. Acad. Sci. U.S.A. 97, 8290-8295; Lukkarinen, […]., and Alhonen, L. (1997) Stroke 28, 639-645). Partial hepatectomy was carried out according to the original method of Higgins and Anderson (Higgins, G. H., and Anderson, R. M. (1931) Arch. Pathol. 12, 186-202). Treatments before partial hepatectomy and the determination of DNA synthesis were carried out as in ([…]., Suppola, […]., and […]. Biol. Chem. 277, 39867-39872). Transgenic 10 weeks old male rats were injected twice with MDL72527 (50 mg/kg i.p.) at 16-h interval to inactivate PAO according to (Bolkenius, F. N., Bey, P., and Seiler, N. (1985) Biochim. Biophys. […] An aliquot of the homogenates was used for the polyamine assays. The homogenates were centrifuged (at 13 000×g, for 30 min, at 4° C.) and the supernatants were used for the enzyme activity assays. The Institutional Animal Care and Use Committee of the University of Kuopio and by the Provincial Government approved animal experiments. […] Merck (Darmstadt, Germany).

[3] = tested on: rats; assay: Toxicity of spermine derivatives in rats (deaths); assay type: in vivo, rat; conditions: 50 mg/kg twice/24 h
From the text: It is likely to be the case with the methylated analogues as well.

[4] = tested on: syngenic and UKU181 transgenic mice; assay: Plasma α-amylase and ALAT in syngenic and transgenic mice after analogue injection; assay type: in vivo, mouse
Experimental: α-methylspermidine, Bis-α-methylspermine and α-methylspermine were administered in saline. […] The data are expressed as means ±S.D. For statistical analysis, the two-tailed Student's t test was used.

[5] = transgenic rats, 24 h regenerating liver, 25 mg/kg 20 and 4 h before operation
[6] = Sg (syngenic) mice, 12.5 mg/kg, 24 h before sacrifice
[7] = Sg (syngenic) mice, 25 mg/kg, 24 h before sacrifice
[8] = Sg (syngenic) mice, 37.5 mg/kg, 24 h before sacrifice
[9] = Sg (syngenic) mice, 50 mg/kg, 24 h before sacrifice
[10] = Tg (transgenic) mice, 12.5 mg/kg, 24 h before sacrifice
[11] = Tg (transgenic) mice, 25 mg/kg, 24 h before sacrifice
[12] = Tg (transgenic) mice, 37.5 mg/kg, 24 h before sacrifice
[13] = Tg (transgenic) mice, 50 mg/kg, 24 h before sacrifice
[14] = transgenic rats, 24 h regenerating liver, 5 mg/kg 20 and 4 h before operation

Compound: CC(N)CCNCCCCNCCC(C)N (stereo not drawn) [bis-α-methylspermine, 1,12-dimethylspermine]
- Me2-Spm (liver) [1, 5]: 381 ± 124 pmoles/mg tissue wet weight
- Me-Spd (liver) [1, 5]: 154 ± 6 pmoles/mg tissue wet weight
- Put (liver) [1, 5]: 4400 ± 275^a pmoles/mg tissue wet weight
- Spd (liver) [1, 5]: 266 ± 55^a pmoles/mg tissue wet weight
- Spm (liver) [1, 5]: 6 ± 8^a pmoles/mg tissue wet weight
- metabolic stability / conversion in the liver in vivo ([2]; 25 mg/kg i.p. twice): converted to α-methylspermidine, but less effectively than α-methylspermine
- conversion to α-methylspermidine in the liver [2]: totally prevented
- deaths [3]: a number of rats died
- Plasma ALAT [4, 6]: 49.33 U/dm^3
- Plasma α-amylase [4, 6]: 3167.33 U/dm^3
- Plasma ALAT [4, 7]: 57.67 U/dm^3
- Plasma α-amylase [4, 7]: 2931.00 U/dm^3
- Plasma ALAT [4, 8]: 35.67 U/dm^3
- Plasma α-amylase [4, 8]: 2827.00 U/dm^3
- Plasma ALAT [4, 9]: 62.00 U/dm^3
- Plasma α-amylase [4, 9]: 2715.33 U/dm^3
- Plasma ALAT [4, 10]: 50.67 U/dm^3
- Plasma α-amylase [4, 10]: 2822.67 U/dm^3
- Plasma ALAT [4, 11]: 45.33 U/dm^3
- Plasma α-amylase [4, 11]: 3242.33 U/dm^3
- Plasma ALAT [4, 12]: 31.00 U/dm^3
- Plasma α-amylase [4, 12]: 2540.00 U/dm^3
- Plasma ALAT [4, 13]: 60.00 U/dm^3
- Plasma α-amylase [4, 13]: 2886.00 U/dm^3

Compound: CC(N)CCNCCCCN (stereo not drawn) [α-methylspermidine, 1-methylspermidine]
- hepatic spermidine and spermine concentrations ([1]; 24 h after partial hepatectomy, 50 mg/kg 3 h before): little effect on hepatic spermidine and spermine concentrations
- accumulation of the analogue in liver ([1]; normal and transgenic rats, 50 mg/kg 3 h before partial hepatectomy): effectively accumulated in normal and transgenic liver
- hepatic putrescine pool ([1]; transgenic rats, 24 h after partial hepatectomy, 50 mg/kg 3 h before): strikingly increased in response to the analogue
- Me-Spd (liver) [1, 14]: 462 ± 41 pmoles/mg tissue wet weight
- Put (liver) [1, 14]: 4540 ± 690^a pmoles/mg tissue wet weight
- Spd (liver) [1, 14]: 183 ± 47^a pmoles/mg tissue wet weight
- Spm (liver) [1, 14]: 18 ± 5^a pmoles/mg tissue wet weight
- Me-Spd (liver) [1, 5]: 864 ± 166 pmoles/mg tissue wet weight
- Put (liver) [1, 5]: 3570 ± 596^a pmoles/mg tissue wet weight
- Spd (liver) [1, 5]: 281 ± 107^a pmoles/mg tissue wet weight
- Spm (liver) [1, 5]: 40 ± 24^a pmoles/mg tissue wet weight
- hepatic SSAT activity ([1]; transgenic rats, single dose 3 h prior to partial hepatectomy, 24 h postoperatively): 7520±3000 pmol/mg/10 min
- accumulation in the liver (tissue concentration) ([2]; 25 mg/kg i.p. twice): highest tissue concentrations
- metabolic stability / conversion in the liver in vivo ([2]; 25 mg/kg i.p. twice): metabolically stable
- Plasma ALAT ([4]; Sg mice, 50 mg/kg, 24 h): 17.90 U/dm^3
- Plasma α-amylase ([4]; Sg mice, 50 mg/kg, 24 h, not corrected constant): 266.76 ± 23.00 ^+ U/dm^3
- Plasma ALAT ([4]; Sg mice, 100 mg/kg, 24 h): 19.21 U/dm^3
- Plasma α-amylase ([4]; Sg mice, 100 mg/kg, 24 h, not corrected constant): 281.81 ± 24.11 U/dm^3
- Plasma ALAT ([4]; Sg mice, 150 mg/kg, 24 h): 18.33 U/dm^3
- Plasma α-amylase ([4]; Sg mice, 150 mg/kg, 24 h, not corrected constant): 284.83 ± 26.90 U/dm^3
- Plasma ALAT ([4]; Sg mice, 250 mg/kg, 24 h): 66.00 U/dm^3
- Plasma α-amylase ([4]; Sg mice, 250 mg/kg, 24 h, not corrected constant): 287.41 ± 74.99 U/dm^3
- Plasma ALAT ([4]; Sg mice, 375 mg/kg, 24 h): 111.39 U/dm^3
- Plasma α-amylase ([4]; Sg mice, 375 mg/kg, 24 h, not corrected constant): 654.32 ± 402.95 U/dm^3
- Plasma ALAT ([4]; Sg mice, 500 mg/kg, 24 h): 32.74 U/dm^3
- Plasma α-amylase ([4]; Sg mice, 500 mg/kg, 24 h, not corrected constant): 370.45 ± 104.58 U/dm^3
- Plasma ALAT ([4]; Tg mice, 50 mg/kg, 24 h): 34.92 U/dm^3
- Plasma α-amylase ([4]; Tg mice, 50 mg/kg, 24 h, not corrected constant): 341.62 ± 44.99 U/dm^3
- Plasma ALAT ([4]; Tg mice, 100 mg/kg, 24 h): 44.96 U/dm^3
- Plasma α-amylase ([4]; Tg mice, 100 mg/kg, 24 h, not corrected constant): 302.90 ± 29.54 U/dm^3
- Plasma ALAT ([4]; Tg mice, 150 mg/kg, 24 h): 41.90 U/dm^3
- Plasma α-amylase ([4]; Tg mice, 150 mg/kg, 24 h, not corrected constant): 275.79 ± 34.37 U/dm^3
- Plasma ALAT ([4]; Tg mice, 250 mg/kg, 24 h): 34.05 U/dm^3
- Plasma α-amylase ([4]; Tg mice, 250 mg/kg, 24 h, not corrected constant): 389.38 ± 213.31 U/dm^3
- Plasma ALAT ([4]; Tg mice, 375 mg/kg, 24 h): 52.38 U/dm^3
- Plasma α-amylase ([4]; Tg mice, 375 mg/kg, 24 h, not corrected constant): 314.51 ± 20.72 U/dm^3

Compound: CC(N)CCNCCCCNCCCN (stereo not drawn) [α-methylspermine, 1-methylspermine]
- metabolic stability / conversion in the liver in vivo ([2]; 25 mg/kg i.p. twice): effectively converted to α-methylspermidine
- conversion to α-methylspermidine in the liver [2]: markedly inhibited
- deaths [3]: a number of rats died
- Plasma ALAT [4, 6]: 54.33 ± 4.16 U/dm^3
- Plasma α-amylase [4, 6]: 2352.00 ± 206.37 U/dm^3
- Plasma ALAT [4, 7]: 43.67 ± 4.04 U/dm^3
- Plasma α-amylase [4, 7]: 2645.67 ± 161.87 ^+ U/dm^3
- Plasma ALAT [4, 8]: 47.67 ± 13.43 U/dm^3
- Plasma α-amylase [4, 8]: 2610.67 ± 144.67 U/dm^3
- Plasma ALAT [4, 9]: 49.00 ± 2.83 U/dm^3
- Plasma α-amylase [4, 9]: 2512.33 ± 275.71 U/dm^3
- Plasma ALAT [4, 10]: 58.67 ± 7.77 U/dm^3
- Plasma α-amylase [4, 10]: 2675.67 ± 305.64 U/dm^3
- Plasma ALAT [4, 11]: 44.67 ± 5.69 U/dm^3
- Plasma α-amylase [4, 11]: 2044.67 ± 112.93 U/dm^3
- Plasma ALAT [4, 12]: 37.00 ± 2.83 U/dm^3
- Plasma α-amylase [4, 12]: 2450.00 ± 410.12 U/dm^3
- Plasma ALAT [4, 13]: 41.33 ± 3.79 U/dm^3
- Plasma α-amylase [4, 13]: 2667.00 ± 297.24 U/dm^3
